Assay results published in EPA's ToxValDB 9.5 (doi:10.2903/j.efsa.2006.87r).
In brackets after ≈: the same amount, converted by molar mass.

Key:
Bird = conditions: for LD50: acute, oral, unspecified, mortality
Daphnia magna = conditions: chronic/long-term; duration: 21 days; reproduction
Oncorhynchus mykiss = conditions: chronic/long-term; duration: 28 days; growth
Bibionidae = conditions: chronic/long-term; duration: 28 days
Lepomis macrochirus = conditions: acute; duration: 96 hours; mortality
Oryctolagus sp. = conditions: reproduction developmental; mortality
Canidae = conditions: chronic; duration: 1 years; oral; Dog Other
Apis mellifera = conditions: acute; duration: 48 hours; oral; unspecified; mortality
Aphidius rhopalosiphi = conditions: not reported

Structure (SMILES) | LD50 (Bird) | NOEC (Daphnia magna) [mg/L] | NOEC (Oncorhynchus mykiss) [mg/L] | NOEC (Bibionidae) [mg/L] | LC50 (Lepomis macrochirus) [µg/mL] | LC50 (acute, oral, diet, mortality) [mg/kg-day] | NOAEL (chronic/long-term) [mg/kg-day] | NOAEL (Oryctolagus sp.) [mg/kg-day] | NOAEL (Canidae) [mg/kg-day] | LC50 (Tagia sp.; acute, duration: 14 days, mortality) [mg/kg] | NOEC (Tagia sp.; chronic/long-term, reproduction) [g/ha] | NOEC (Bird; reproductive) [mg/kg-day] | LD50 (Apis mellifera) [µg/piece] | LD50 (Rattus norvegicus; acute, oral, mortality) [mg/kg] | NOAEL (Rattus norvegicus; chronic, duration: 2 years, organ weight) [mg/kg-day] | NOAEL (Rattus norvegicus; reproduction developmental, body weight) [mg/kg-day] | LEL (Aphidius rhopalosiphi; mortality) [g/ha] | LEL (Aphidius rhopalosiphi; reproduction) [g/ha]
COC(=O)[C@@H](C)Oc1ccc(Oc2ncc(C(F)(F)F)cc2Cl)cc1 [Haloxyfop-P-methyl] | 1160 mg/kg-day | 0.509 | 0.0052 | 2.5 | 0.0884 (≈ 0.235 µM) | – | – | – | – | – | – | – | – | – | – | – | – | –
C[C@@H](Oc1ccc(Oc2ncc(C(F)(F)F)cc2Cl)cc1)C(=O)O [Haloxyfop-P] | 414 mg/kg | – | – | – | – | > 1110 | 1 | 7.5 | 0.5 | 830 | 810 | 17.1 | > 100 | ≥ 300 | 0.065 | 0.065 | 108 | 5.7
